In one assay the target is IDH1 R132C (Homo sapiens, UniProt O75874, R132C). The experiment in a line: IDH1 R132C enzymatic assay (NADPH depletion coupled to diaphorase/resazurin). Type of assay: biochemical. The conditions noted are these: IDH1 R132C enzymatic inhibition, IC50 class. The method, boiled down:
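NADPH depletion, read via diaphorase/resazurin coupling, after adding substrate at 0.6 mM α-KG and 0.012 mM NADPH. Beforehand, 0.00032 mg/mL enzyme sat with compound 30 min at room temperature in pH 6.5 potassium phosphate buffer with MgCl2, glycerol and BSA.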
In general terms: Resazurin is reduced to fluorescent resorufin, in cell work by metabolically active cells.

Another assay addresses IDH1 R132H (Homo sapiens, UniProt O75874, R132H). Briefly: IDH1 R132H enzymatic assay (NADPH depletion coupled to diaphorase/resazurin). Format: biochemical. The conditions noted are these: IDH1 R132H enzymatic inhibition, IC50 class.

Bounds are passed on as bounds.

The IC50 is the concentration needed to halve the response being measured.

Sequence of IDH1 R132H (O75874 whole entry R132H): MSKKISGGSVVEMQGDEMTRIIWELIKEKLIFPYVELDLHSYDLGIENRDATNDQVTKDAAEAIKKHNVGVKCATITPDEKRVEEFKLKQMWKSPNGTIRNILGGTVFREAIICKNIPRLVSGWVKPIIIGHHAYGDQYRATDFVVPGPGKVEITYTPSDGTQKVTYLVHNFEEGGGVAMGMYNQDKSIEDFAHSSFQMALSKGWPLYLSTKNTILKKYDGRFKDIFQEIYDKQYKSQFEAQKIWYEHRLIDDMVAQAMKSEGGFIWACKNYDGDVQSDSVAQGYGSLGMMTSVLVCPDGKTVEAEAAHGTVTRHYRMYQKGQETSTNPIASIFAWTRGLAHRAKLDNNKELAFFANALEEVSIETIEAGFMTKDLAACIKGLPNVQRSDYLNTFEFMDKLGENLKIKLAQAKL
Sequence of IDH1 R132C (O75874 whole entry R132C): as the sequence (O75874 whole entry R132H) above, with H132C counted along it

Regarding `COc1ccccc1Cn1c2c(cc(-c3nc(-c4ccc(Cl)cc4)cs3)c1=O)C(=O)CC(C)(C)C2` [Compound 203], the IC50 on IDH1 R132C and at IDH1 R132H was 1 to 5 µM in each case.

For `COc1ccc(-c2csc(-c3cc4c(n(-c5ccccc5C(F)(F)F)c3=O)CC(C)(C)CC4=O)n2)cc1` [Compound 204], the IC50 on IDH1 R132C fell in the range of 0.3 to 1 µM; on IDH1 R132H, 1 to 5 µM.

For the compound `CCc1cccc(CC)c1-n1c2c(cc(-c3nc(-c4cccc(Cl)c4)cs3)c1=O)C(=O)CC(C)(C)C2` [Compound 205], the IC50 against IDH1 R132C is 1 to 5 µM; against IDH1 R132H, more than 20 µM.

Turning to `CCc1cccc(CC)c1-n1c(CC(C)C)c(C(=O)N2CC(C(=O)O)NCC2C)cc(-c2nc(-c3ccc(Cl)cc3)cs2)c1=O` (centres unmarked) [Compound 206], the IC50 is less than 0.3 µM at IDH1 R132C and 0.3 to 1 µM against IDH1 R132H.

Turning to `CCc1cccc(CC)c1-n1c(C)c(C(=O)N2CCC(NC)C2)cc(-c2nc(-c3ccc(Cl)cc3)cs2)c1=O` (centres unmarked) [Compound 207], the half-inhibitory concentration (IC50) on IDH1 R132C and on IDH1 R132H was 1 to 5 µM each time.

As to `CCc1cccc(CC)c1-n1c2c(cc(-c3nc(C4=CCN(C)CC4)c(C)s3)c1=O)C(=O)CC(C)(C)C2` [Compound 208], the IC50 on IDH1 R132C is 5 to 20 µM; against IDH1 R132H, more than 20 µM.

Turning to `CCc1cccc(CC)c1-n1c2c(cc(-c3nc(-c4cccc(F)c4)cs3)c1=O)C(=O)CC(C)(C)C2` [Compound 209], the IC50 on IDH1 R132C and against IDH1 R132H was 1 to 5 µM in each case.

As to `CCc1cccc(CC)c1-n1c(CC(C)C)c(C(=O)N2CCNCC2)cc(-c2nc(-c3ccc(C(F)(F)F)cc3)c(C)s2)c1=O` [Compound 210], the IC50 at IDH1 R132C is less than 0.3 µM; against IDH1 R132H, 0.3 to 1 µM.

On to `CCc1cccc(CC)c1-n1c(CC(C)C)c(C(=O)N2CCNCC2)cc(-c2nc(-c3ccc(N4CCOCC4)cc3)c(C)s2)c1=O` [Compound 211], for which the half-inhibitory concentration (IC50) on IDH1 R132C and at IDH1 R132H was 5 to 20 µM throughout.

`CCOc1ccccc1-n1c2c(cc(-c3nc(-c4ccc(Cl)cc4)cs3)c1=O)C(=O)CC(C)(C)C2` [Compound 212]: the IC50 at IDH1 R132C and on IDH1 R132H was 0.3 to 1 µM in each case.

In the case of `CCc1cccc(CC)c1-n1c2c(cc(-c3nc(-c4ccccc4Cl)cs3)c1=O)C(=O)CC(C)(C)C2` [Compound 213], the IC50 at IDH1 R132C and on IDH1 R132H was 1 to 5 µM in each case.

Take `CCc1cccc(CC)c1-n1c(C)c(C(=O)N[C@@H]2CCCC[C@@H]2N)cc(-c2nc(-c3ccc(Cl)cc3)cs2)c1=O` [Compound 214]: the IC50 against IDH1 R132C lay in the range of 0.3 to 1 µM; on IDH1 R132H it was 5 to 20 µM.

As for `Cc1cccc(C)c1-n1c2c(cc(-c3nc(-c4ccc(Cl)cc4)cs3)c1=O)C(=O)CC(C)(C)C2` [Compound 215], the half-inhibitory concentration (IC50) against IDH1 R132C and at IDH1 R132H was 1 to 5 µM throughout.

For `CC1(C)CC(=O)c2cc(-c3nc(-c4ccc(Cl)cc4)cs3)c(=O)n(C3CCCCC3)c2C1` [Compound 216], the IC50 was 5 to 20 µM on IDH1 R132C and more than 20 µM against IDH1 R132H.

As to `CCc1cccc(CC)c1-n1c(CC(C)C)c(C(=O)N[C@@H]2CCC[C@H]2O)cc(-c2nc(-c3ccc(Cl)cc3)cs2)c1=O` [Compound 217], the results for the IC50 at IDH1 R132C and on IDH1 R132H were 0.3 to 1 µM and 1 to 5 µM, respectively.

Regarding `CCc1cccc(CC)c1-n1c(C(C)C)c(C(=O)NCCO)cc(-c2nc(-c3ccc(Cl)cc3)cs2)c1=O` [Compound 218], the results for the IC50 against IDH1 R132C and at IDH1 R132H were 0.3 to 1 µM and less than 0.3 µM, respectively.

Consider `CCc1cccc(CC)c1-n1c(C)c(C(=O)NC2CCC(O)CC2)cc(-c2nc(-c3ccc(Cl)cc3)cs2)c1=O` (centres unmarked) [Compound 219], for which the 50% inhibitory concentration (IC50) against IDH1 R132C and against IDH1 R132H was 1 to 5 µM each time.

`CCc1cccc(CC)c1-n1c(C)c(C(=O)N2CCN[C@@H](CO)C2)cc(-c2nc(-c3ccc(Cl)cc3)cs2)c1=O` [Compound 220]: the values for the IC50 against IDH1 R132C and on IDH1 R132H were 0.3 to 1 µM and less than 0.3 µM, respectively.

As for `CCc1cccc(CC)c1-n1c(CC(C)C)c(C(=O)NC[C@H](N)C(=O)O)cc(-c2nc(-c3ccc(Cl)cc3)cs2)c1=O` [Compound 221], the IC50 on IDH1 R132C was in the range of 0.3 to 1 µM; against IDH1 R132H, 1 to 5 µM.

These data come from patent US10703746B2, “Mutant IDH1 inhibitors useful for treating cancer” (THE UNITED STATES OF AMERICA, AS REPRESENTED BY THE …, priority 2014, dated 2020).
